Where “and” joins values, the source holds several entries; their conditions need not be identical. Equal values may be shown once. Inconclusive results and toxic doses are left out. How the source made its calls: active means survival T/C of 150% or more; inactive means T/C below 125% in these data.
Test system: P388 leukemia ip, CD2F1 mice, survival T/C
Assay: NCI In Vivo Anticancer Drug Screen. Data for tumor model P388 Leukemia (intraperitoneal) in CD2F1 (CDF1) mice
Conditions: endpoint: median survival time, higher = longer survival
How it was run: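 Mice carrying the transplanted tumor received test compound or vehicle. Survival was recorded in each group, and the value is the treated-group measurement divided by that of the vehicle-treated control group.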

[1] = dose: 50.0 mg/kg/injection, schedule: Q01DX005 (ip), vehicle: Klucel (hydroxypropylcellulose) (HPC)
[2] = dose: 100.0 mg/kg/injection, schedule: Q01DX005 (ip), vehicle: Klucel (hydroxypropylcellulose) (HPC)
[3] = dose: 200.0 mg/kg/injection, schedule: Q01DX005 (ip), vehicle: Klucel (hydroxypropylcellulose) (HPC)
[4] = dose: 60.0 mg/kg/injection, schedule: Q01DX005 (ip), vehicle: saline
[5] = dose: 120.0 mg/kg/injection, schedule: Q01DX005 (ip), vehicle: saline
[6] = dose: 100.0 mg/kg/injection, schedule: Q04DX003 (ip), vehicle: Klucel (hydroxypropylcellulose) (HPC)
[7] = dose: 200.0 mg/kg/injection, schedule: Q04DX003 (ip), vehicle: Klucel (hydroxypropylcellulose) (HPC)
[8] = dose: 400.0 mg/kg/injection, schedule: Q04DX003 (ip), vehicle: Klucel (hydroxypropylcellulose) (HPC)
[9] = dose: 50.0 mg/kg/injection, schedule: Q01DX005 (ip), vehicle: saline with Tween-80
[10] = dose: 100.0 mg/kg/injection, schedule: Q01DX005 (ip), vehicle: saline with Tween-80
[11] = dose: 200.0 mg/kg/injection, schedule: Q01DX005 (ip), vehicle: saline with Tween-80
[12] = dose: 60.0 mg/kg/injection, schedule: Q01DX005 (ip), vehicle: saline with Tween-80
[13] = dose: 120.0 mg/kg/injection, schedule: Q01DX005 (ip), vehicle: saline with Tween-80
[14] = dose: 12.5 mg/kg/injection, schedule: Q01DX009 (ip), vehicle: saline with Tween-80

Measured: T/C

CCOC(=O)C(C#N)C(c1ccc2c(c1)OCO2)N(CCO)CCO (stereo not drawn)
inactive: [1] 93 % of control | [2] 99 % of control | [3] 99 % of control

CN(C)CCO[Si](C)(C)[CH2][Sn]([CH3])([CH3])[CH3]
inactive: [4] 108 % of control | [5] 105 % of control

ClCCn1c(CCl)nc2ccc(Cl)cc21
inactive: dose: 3.12 mg/kg/injection, schedule: Q01DX009 (ip), vehicle: Klucel (hydroxypropylcellulose) (HPC) 93 % of control | dose: 6.25 mg/kg/injection, schedule: Q01DX009 (ip), vehicle: Klucel (hydroxypropylcellulose) (HPC) 101 % of control | dose: 12.5 mg/kg/injection, schedule: Q01DX009 (ip), vehicle: Klucel (hydroxypropylcellulose) (HPC) 100 % of control | dose: 25.0 mg/kg/injection, schedule: Q01DX009 (ip), vehicle: Klucel (hydroxypropylcellulose) (HPC) 100 % of control

COC(=O)/C(=C\SC(C)=O)NC(C)=O
inactive: dose: 100.0 mg/kg/injection, schedule: Q04DX002 (ip), vehicle: saline with Tween-80 107 % of control | dose: 200.0 mg/kg/injection, schedule: Q04DX002 (ip), vehicle: saline with Tween-80 105 % of control | dose: 400.0 mg/kg/injection, schedule: Q04DX002 (ip), vehicle: saline with Tween-80 117 % of control

CC(C)(C)c1cc(C[N+](C)(C)C)c(O)c(C(C)(C)C)c1
inactive: dose: 12.5 mg/kg/injection, schedule: Q01DX005 (ip), vehicle: distilled water + alcohol 95 % of control | dose: 25.0 mg/kg/injection, schedule: Q01DX005 (ip), vehicle: distilled water + alcohol 96 % of control | dose: 50.0 mg/kg/injection, schedule: Q01DX005 (ip), vehicle: distilled water + alcohol 101 % of control and 104 % of control

CCCCCCCCCCCC(=O)OCCS(=O)(=O)CCOC(=O)CCCCCCCCCCC
inactive: [6] 104 % of control | [7] 103 % of control | [8] 99 % of control

N#C/C(=C1/OC(=N)C(c2ccccc2Cl)C1=O)c1ccccc1Cl (stereo not drawn)
inactive: [9] 103 % of control | [10] 107 % of control | [11] 103 % of control

CCOC(=O)c1cc2c(ccc3ccccc32)[nH]1
inactive: [12] 97 % of control | [13] 89 % of control

O=c1[nH]nc2ccc(n[nH]c1=O)c1ccccc21
inactive: dose: 3.13 mg/kg/injection, schedule: Q01DX005 (ip), vehicle: saline with Tween-80 104 % of control | dose: 6.25 mg/kg/injection, schedule: Q01DX005 (ip), vehicle: saline with Tween-80 107 % of control | dose: 12.5 mg/kg/injection, schedule: Q01DX005 (ip), vehicle: saline with Tween-80 99 % of control and 103 % of control | dose: 25.0 mg/kg/injection, schedule: Q01DX005 (ip), vehicle: saline with Tween-80 101 % of control | [9] 104 % of control and 107 % of control

O=C(O)CCC(CCC(=O)O)(C(=O)O)C(=O)O
inactive: [4] 96 % of control | [5] 99 % of control

Cc1ccc(S(=O)c2ccccc2C(O)(C(F)(F)F)C(F)(F)F)cc1 (stereo not drawn)
inactive: [1] 99 % of control | [2] 99 % of control | [3] 92 % of control

O=C1Nc2ccc3[nH]ncc3c2C1=O
inactive: [9] 101 % of control | [10] 103 % of control | [11] 109 % of control

CCCCCCCCCCCCCCCC[N+](C)(C)CCN=[N+]=[N-]
inactive: [14] 110 % of control | dose: 25.0 mg/kg/injection, schedule: Q01DX009 (ip), vehicle: saline with Tween-80 107 % of control

Oc1[nH]c2ccccc2c1N=NC(=S)NC1C2CC3CC(C2)CC1C3 (stereo not drawn)
inactive: [9] 103 % of control | [10] 100 % of control | [11] 103 % of control

COc1cc(N)ccc1NC(=O)c1ccccc1
inactive: dose: 6.25 mg/kg/injection, schedule: Q01DX009 (ip), vehicle: saline with Tween-80 109 % of control | [14] 100 % of control

CCC(C)C(C)CNC12CN3CN(CN(C3)C1)C2 (stereo not drawn)
inactive: dose: 50.0 mg/kg/injection, schedule: Q01DX001 (ip), vehicle: saline 103 % of control | dose: 100.0 mg/kg/injection, schedule: Q01DX001 (ip), vehicle: saline 104 % of control | dose: 200.0 mg/kg/injection, schedule: Q01DX001 (ip), vehicle: saline 108 % of control

[Br][Sn]([Br])([CH2]c1ccccc1)[c]1ccccc1
inactive: dose: 1.56 mg/kg/injection, schedule: Q04DX003 (ip), vehicle: saline 101 % of control and 102 % of control | dose: 3.12 mg/kg/injection, schedule: Q04DX003 (ip), vehicle: saline 99 % of control and 102 % of control | dose: 6.25 mg/kg/injection, schedule: Q04DX003 (ip), vehicle: saline with Tween-80 118 % of control | dose: 6.25 mg/kg/injection, schedule: Q04DX003 (ip), vehicle: saline 105 % of control and 106 % of control | dose: 12.5 mg/kg/injection, schedule: Q04DX003 (ip), vehicle: saline 99 % of control and 104 % of control

NC(=O)c1[nH]c(N=Nc2ccc(S(N)(=O)=O)cc2)nc1N
inactive: [6] 100 % of control | [7] 101 % of control | [8] 94 % of control

COc1cc(OC)c2c(c1)Oc1cc(OC)cc(OC)c1C2
inactive: [1] 97 % of control | [2] 96 % of control | [3] 95 % of control

CC(C)CN1CC(=O)N2CCCC(c3ccccc3)N2C(=O)C1 (stereo not drawn)
inactive: [9] 95 % of control | [10] 115 % of control | [11] 112 % of control

CC(=O)Oc1ccc(OC(C)=O)c2c(OC(C)=O)c(C3CCC(C)(C)O3)cc(OC(C)=O)c12 (stereo not drawn)
inactive: dose: 12.5 mg/kg/injection, schedule: Q04DX002 (ip), vehicle: saline with Tween-80 106 % of control | dose: 25.0 mg/kg/injection, schedule: Q04DX002 (ip), vehicle: saline with Tween-80 118 % of control

CN(CCOc1c(I)cc(I)cc1I)CC(O)C(O)C(O)C(O)CO (stereo not drawn)
inactive: dose: 50.0 mg/kg/injection, schedule: Q01DX001 (ip), vehicle: Klucel (hydroxypropylcellulose) (HPC) 110 % of control | dose: 50.0 mg/kg/injection, schedule: Q01DX009 (ip), vehicle: Klucel (hydroxypropylcellulose) (HPC) 94 % of control | dose: 100.0 mg/kg/injection, schedule: Q01DX001 (ip), vehicle: Klucel (hydroxypropylcellulose) (HPC) 108 % of control | dose: 200.0 mg/kg/injection, schedule: Q01DX001 (ip), vehicle: Klucel (hydroxypropylcellulose) (HPC) 109 % of control

[Cl][Sn]1([c]2ccccc2)[O]CCNCC[O]1
inactive: dose: 25.0 mg/kg/injection, schedule: Q01DX009 (ip), vehicle: suspension in saline 97 % of control | dose: 50.0 mg/kg/injection, schedule: Q01DX009 (ip), vehicle: saline 120 % of control | dose: 50.0 mg/kg/injection, schedule: Q01DX009 (ip), vehicle: suspension in saline 109 % of control | dose: 100.0 mg/kg/injection, schedule: Q01DX009 (ip), vehicle: suspension in saline 109 % of control

O=C(Nc1ccccc1)Nc1c2c(nc3ccccc13)CCCCC2
inactive: [9] 86 % of control | [10] 89 % of control | [11] 90 % of control

COc1cc(C2c3cc4c(c(OC)c3C(O)C3CC(=O)OC23)OCO4)cc(OC)c1OC (stereo not drawn)
inactive: [12] 115 % of control | [13] 116 % of control

CC(/C=N\Nc1ccc(Cl)cc1)=N/NC(=O)C[N+](C)(C)C
inactive: dose: 100.0 mg/kg/injection, schedule: Q04DX002 (ip), vehicle: saline 101 % of control | dose: 200.0 mg/kg/injection, schedule: Q04DX002 (ip), vehicle: saline 100 % of control | dose: 400.0 mg/kg/injection, schedule: Q04DX002 (ip), vehicle: saline 92 % of control
